Where two headings read alike, the source gives them in different places.
What was measured:
Format in all cases: in vivo
[1] = test system: water seeded rice seedlings (Oryza sativa cv. ‘Japonica-M202’); assay: Test E flooded paddy water application; details: Flood, 21 days, scale 0 to 100 (0 no effect, 100 complete control); for Plant response rating, Rice, Water Seeded: 16 g ai/ha
How it was run: (§1)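 Response scored visually on a 0–100 scale (100 = complete control) at 21 days against untreated pots. Treatment was into paddy water 3 cm deep over silt loam, with plants at the 2.0–2.5-leaf stage, grown under 16-h light at 29.5/26.7 °C day/night.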

[2] = test system: transplanted rice seedlings (Oryza sativa cv. ‘Japonica-M202’); assay: Test E flooded paddy water application; details: Flood, 21 days, scale 0 to 100 (0 no effect, 100 complete control); for Plant response rating, Rice, Transplanted: 16 g ai/ha
How it was run: as §1

[3] = test system: purple redstem (Ammannia coccinea); assay: Test E flooded paddy water application; details: Flood, 21 days, scale 0 to 100 (0 no effect, 100 complete control); for Plant response rating, Redstem: 16 g ai/ha
How it was run: as §1

[4] = test system: early watergrass (Echinochloa oryzoides); assay: Test E flooded paddy water application; details: Flood, 21 days, scale 0 to 100 (0 no effect, 100 complete control); for Plant response rating, Watergrass, Early: 16 g ai/ha
How it was run: as §1

[5] = test system: ducksalad (Heteranthera limosa); assay: Test E flooded paddy water application; details: Flood, 21 days, scale 0 to 100 (0 no effect, 100 complete control); for Plant response rating, Ducksalad: 16 g ai/ha
How it was run: as §1

[6] = test system: common ragweed (Ambrosia elatior); assay: Test C pre/postemergence; details: Ambrosia artemisiifolia; for pest or weed control at 16 g/ha: 16 g ai/ha; for pest or weed control at 31 g/ha: 31 g ai/ha; for pest or weed control at 62 g/ha: 62 g ai/ha; for pest or weed control at 125 g/ha: 125 g ai/ha; for pest or weed control at 8 g/ha: 8 g ai/ha; for pest or weed control at 250 g/ha: 250 g ai/ha
How it was run: (§2)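 Injury scored visually 12–14 days after application on 0–100 scale (100 = complete control), relative to controls. Compounds, formulated with surfactant in non-phytotoxic solvent, applied to soil at planting (pre) or to 1- to 4-leaf plants 2–18 cm tall (post) in greenhouse.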

[7] = test system: eastern black nightshade (Solanum ptycanthum); assay: Test C pre/postemergence; details: Solanum, pre-emergence, Preemergence, read-out: Plant response rating, Nightshade; for pest or weed control at 16 g/ha: 16 g ai/ha; for pest or weed control at 16 g/ha / pest or weed control at 31 g/ha / pest or weed control at 62 g/ha: scale 0 to 100, 0 no effect, 100 complete control; for pest or weed control at 31 g/ha: 31 g ai/ha; for pest or weed control at 62 g/ha: 62 g ai/ha
How it was run: as §2

[8] = test system: bermudagrass (Cynodon dactylon); assay: Test C pre/postemergence; details: Cynodon dactylon; for pest or weed control at 16 g/ha: 16 g ai/ha; for pest or weed control at 31 g/ha: 31 g ai/ha; for pest or weed control at 62 g/ha: 62 g ai/ha; for pest or weed control at 125 g/ha: 125 g ai/ha; for pest or weed control at 8 g/ha: 8 g ai/ha; for pest or weed control at 250 g/ha: 250 g ai/ha
How it was run: as §2

[9] = post-emergence, Postemergence, read-out: Plant response rating (scale of 0 to 100), Ragweed
[10] = post-emergence, Postemergence, scale 0 to 100 (0 no effect, 100 complete control), read-out: Ragweed plant response rating
[11] = pre-emergence, Preemergence, scale 0 to 100, 0 no effect, 100 complete control, read-out: Plant response rating, Ragweed
[12] = post-emergence, Postemergence, read-out: Plant response rating (scale of 0 to 100), Bermudagrass
[13] = post-emergence, Postemergence, scale 0 to 100 (0 no effect, 100 complete control), read-out: Bermudagrass plant response rating
[14] = pre-emergence, Preemergence, scale 0 to 100, 0 no effect, 100 complete control, read-out: Plant response rating, Bermudagrass
[15] = pre-emergence, Preemergence, scale 0 to 100, read-out: Plant response rating, Bermudagrass
[16] = post-emergence, Postemergence, scale 0 to 100, read-out: Plant response rating, Ragweed
[17] = pre-emergence, Preemergence, scale 0 to 100, read-out: Plant response rating, Ragweed

Nc1nc(-c2ccc(Cl)cc2)nc(C(=O)O)c1Cl [Compound 65, 6-amino-5-chloro-2-(4-chlorophenyl)-4-pyrimidinecarboxylic acid]
Rice, Water Seeded plant response rating ([1]; 32 g ai/ha): 0 | Rice, Water Seeded plant response rating ([1]; 64 g ai/ha): 0 | Rice, Water Seeded plant response rating ([1]; 125 g ai/ha): 0 | Rice, Water Seeded plant response rating ([1]; 250 g ai/ha): 10 | Plant response rating, Rice, Water Seeded [1]: 0 | Rice, Transplanted plant response rating ([2]; 32 g ai/ha): 0 | Rice, Transplanted plant response rating ([2]; 64 g ai/ha): 0 | Rice, Transplanted plant response rating ([2]; 125 g ai/ha): 0 | Rice, Transplanted plant response rating ([2]; 250 g ai/ha): 0 | Plant response rating, Rice, Transplanted [2]: 0 | Redstem plant response rating ([3]; 32 g ai/ha): 30 | Redstem plant response rating ([3]; 64 g ai/ha): 30 | Redstem plant response rating ([3]; 125 g ai/ha): 50 | Redstem plant response rating ([3]; 250 g ai/ha): 60 | Plant response rating, Redstem [3]: 0 | Watergrass, Early plant response rating ([4]; 32 g ai/ha): 0 | Watergrass, Early plant response rating ([4]; 64 g ai/ha): 0 | Watergrass, Early plant response rating ([4]; 125 g ai/ha): 0 | Watergrass, Early plant response rating ([4]; 250 g ai/ha): 10 | Plant response rating, Watergrass, Early [4]: 0 | Ducksalad plant response rating ([5]; 32 g ai/ha): 100 | Ducksalad plant response rating ([5]; 64 g ai/ha): 100 | Ducksalad plant response rating ([5]; 125 g ai/ha): 100 | Ducksalad plant response rating ([5]; 250 g ai/ha): 100 | Plant response rating, Ducksalad [5]: 100 | pest or weed control at 16 g/ha [6, 9]: 80% | pest or weed control at 31 g/ha [6, 9]: 90% | pest or weed control at 62 g/ha [6, 9]: 95% | pest or weed control at 125 g/ha [6, 10]: 95% | pest or weed control at 16 g/ha [6, 11]: 85% | pest or weed control at 31 g/ha [6, 11]: 85% | pest or weed control at 62 g/ha [6, 11]: 90% | pest or weed control at 16 g/ha [7]: 0% | pest or weed control at 31 g/ha [7]: 0% | pest or weed control at 16 g/ha [8, 12]: 60% | pest or weed control at 31 g/ha [8, 12]: 60% | pest or weed control at 62 g/ha [8, 13]: 70% | pest or weed control at 125 g/ha [8, 13]: 70% | pest or weed control at 16 g/ha [8, 14]: 0% | pest or weed control at 31 g/ha [8, 14]: 50% | pest or weed control at 62 g/ha [8, 14]: 70% | pest or weed control at 125 g/ha [8, 15]: 80%

Nc1nc(-c2ccc(Br)cc2)nc(C(=O)O)c1Cl [Compound 95, 6-amino-2-(4-bromophenyl)-5-chloro-4-pyrimidinecarboxylic acid]
Rice, Water Seeded plant response rating ([1]; 32 g ai/ha): 0 | Rice, Water Seeded plant response rating ([1]; 64 g ai/ha): 0 | Rice, Water Seeded plant response rating ([1]; 125 g ai/ha): 0 | Rice, Water Seeded plant response rating ([1]; 250 g ai/ha): 15 | Plant response rating, Rice, Water Seeded [1]: 0 | Rice, Transplanted plant response rating ([2]; 32 g ai/ha): 0 | Rice, Transplanted plant response rating ([2]; 64 g ai/ha): 0 | Rice, Transplanted plant response rating ([2]; 125 g ai/ha): 0 | Rice, Transplanted plant response rating ([2]; 250 g ai/ha): 15 | Plant response rating, Rice, Transplanted [2]: 0 | Redstem plant response rating ([3]; 64 g ai/ha): 30 | Redstem plant response rating ([3]; 125 g ai/ha): 70 | Redstem plant response rating ([3]; 250 g ai/ha): 80 | Plant response rating, Redstem [3]: 30 | Watergrass, Early plant response rating ([4]; 32 g ai/ha): 0 | Watergrass, Early plant response rating ([4]; 64 g ai/ha): 0 | Watergrass, Early plant response rating ([4]; 125 g ai/ha): 0 | Watergrass, Early plant response rating ([4]; 250 g ai/ha): 0 | Plant response rating, Watergrass, Early [4]: 0 | Ducksalad plant response rating ([5]; 32 g ai/ha): 100 | Ducksalad plant response rating ([5]; 64 g ai/ha): 100 | Ducksalad plant response rating ([5]; 125 g ai/ha): 100 | Ducksalad plant response rating ([5]; 250 g ai/ha): 100 | Plant response rating, Ducksalad [5]: 100 | pest or weed control at 8 g/ha [6, 16]: 90% | pest or weed control at 16 g/ha [6, 9]: 95% | pest or weed control at 31 g/ha [6, 9]: 95% | pest or weed control at 62 g/ha [6, 9]: 95% | pest or weed control at 8 g/ha ([6]; pre-emergence, Preemergence, scale 0 to 100 (0 no effect, 100 complete control), read-out: Plant response rating, Ragweed): 65% | pest or weed control at 16 g/ha [6, 11]: 90% | pest or weed control at 31 g/ha [6, 11]: 100% | pest or weed control at 62 g/ha [6, 11]: 100% | pest or weed control at 8 g/ha ([7]; 8 g ai/ha, scale 0 to 100 (0 no effect, 100 complete control)): 0% | pest or weed control at 16 g/ha [7]: 0% | pest or weed control at 31 g/ha [7]: 60% | pest or weed control at 62 g/ha [7]: 75% | pest or weed control at 8 g/ha ([8]; post-emergence, Postemergence, scale 0 to 100 (0 no effect, 100 complete control), read-out: Plant response rating, Bermudagrass): 70% | pest or weed control at 16 g/ha [8, 12]: 70% | pest or weed control at 31 g/ha [8, 12]: 85% | pest or weed control at 62 g/ha [8, 13]: 85% | pest or weed control at 8 g/ha ([8]; pre-emergence, Preemergence, scale 0 to 100 (0 no effect, 100 complete control), read-out: Plant response rating, Bermudagrass): 0% | pest or weed control at 16 g/ha [8, 14]: 0% | pest or weed control at 31 g/ha [8, 14]: 0% | pest or weed control at 62 g/ha [8, 14]: 55%

CCOC(=O)c1nc(-c2ccc(Cl)cc2)nc(N)c1Cl [Compound 64, ethyl 6-amino-5-chloro-2-(4-chlorophenyl)-4-pyrimidinecarboxylate]
Rice, Water Seeded plant response rating ([1]; 32 g ai/ha): 0 | Rice, Water Seeded plant response rating ([1]; 64 g ai/ha): 0 | Rice, Water Seeded plant response rating ([1]; 125 g ai/ha): 0 | Rice, Water Seeded plant response rating ([1]; 250 g ai/ha): 0 | Plant response rating, Rice, Water Seeded [1]: 0 | Rice, Transplanted plant response rating ([2]; 32 g ai/ha): 0 | Rice, Transplanted plant response rating ([2]; 64 g ai/ha): 0 | Rice, Transplanted plant response rating ([2]; 125 g ai/ha): 10 | Rice, Transplanted plant response rating ([2]; 250 g ai/ha): 10 | Plant response rating, Rice, Transplanted [2]: 0 | Redstem plant response rating ([3]; 32 g ai/ha): 60 | Redstem plant response rating ([3]; 64 g ai/ha): 60 | Redstem plant response rating ([3]; 125 g ai/ha): 60 | Redstem plant response rating ([3]; 250 g ai/ha): 80 | Plant response rating, Redstem [3]: 20 | Watergrass, Early plant response rating ([4]; 32 g ai/ha): 0 | Watergrass, Early plant response rating ([4]; 64 g ai/ha): 0 | Watergrass, Early plant response rating ([4]; 125 g ai/ha): 0 | Watergrass, Early plant response rating ([4]; 250 g ai/ha): 0 | Plant response rating, Watergrass, Early [4]: 0 | Ducksalad plant response rating ([5]; 32 g ai/ha): 100 | Ducksalad plant response rating ([5]; 64 g ai/ha): 100 | Ducksalad plant response rating ([5]; 125 g ai/ha): 100 | Ducksalad plant response rating ([5]; 250 g ai/ha): 100 | Plant response rating, Ducksalad [5]: 100 | pest or weed control at 31 g/ha [6, 9]: 75% | pest or weed control at 62 g/ha [6, 10]: 80% | pest or weed control at 125 g/ha [6, 10]: 85% | pest or weed control at 250 g/ha [6, 16]: 90% | pest or weed control at 31 g/ha [6, 11]: 85% | pest or weed control at 62 g/ha [6, 11]: 85% | pest or weed control at 125 g/ha [6, 17]: 95% | pest or weed control at 250 g/ha [6, 17]: 100% | pest or weed control at 31 g/ha [7]: 5% | pest or weed control at 62 g/ha [7]: 85% | pest or weed control at 125 g/ha ([7]; 125 g ai/ha, scale 0 to 100): 85% | pest or weed control at 250 g/ha ([7]; 250 g ai/ha, scale 0 to 100): 95% | pest or weed control at 31 g/ha [8, 12]: 20% | pest or weed control at 62 g/ha [8, 13]: 60% | pest or weed control at 125 g/ha [8, 13]: 65% | pest or weed control at 250 g/ha ([8]; post-emergence, Postemergence, scale 0 to 100, read-out: Plant response rating, Bermudagrass): 70% | pest or weed control at 31 g/ha [8, 14]: 0% | pest or weed control at 62 g/ha [8, 14]: 0% | pest or weed control at 125 g/ha [8, 15]: 20% | pest or weed control at 250 g/ha [8, 15]: 20%

— patent US8802597B2, “Herbicidal pyrimidines” (E I du Pont de Nemours and Company, priority 2003, dated 2014)
